Read-outs that look alike come from different tables or passages of the source.
Tests used:
[1] = target: human Src kinase (Homo sapiens, UniProt P12931); test: Src inhibition assay (spectrophotometric coupled-enzyme assay); assay type: biochemical; conditions: 25 nM Src, 100 μM ATP, poly Glu,Tyr (4:1), 30° C.
Description: The compounds are evaluated as inhibitors of human Src kinase using a spectrophotometric assay.
An assay buffer solution was prepared which consisted of 25 mM HEPES (pH 7.5), 10 mM MgCl2, 250 μM NADH, 3 mM phosphoenolpyruvate, 60 μg/mL pyruvate kinase, 21 μg/mL lactate dehydrogenase, 113 μM ATP and 28 nM Src. To 60 μL of this solution, in a 96 well plate, was added 2 μL of test compound stock solution in DMSO and the mixture allowed to equilibrate for 10 mins at 30° C. The enzyme reaction was initiated by the addition of 5 μL 10 mg/mL poly Glu, Tyr (4:1) prepared in 25 mM HEPES (pH 7.5). Final assay concentrations of Src and ATP were 25 nM and 100 μM respectively. Initial rate data was determined from the rate of change of absorbance at 340 nm (corresponding to stoichiometric consumption of NADH) using a Molecular Devices Spectramax plate reader (Sunnyvale, Calif.) over 10 mins at 30° C. For each Ki determination 8 data points covering the test compound concentration range of 0-7.5 μM were obtained in duplicate. Ki values were calculated from initial rate data by non-linear regression using the Prism software package (Prism 4.0a, Graphpad Software, San Diego, Calif.).

[2] = target: human Lck kinase (Homo sapiens, UniProt P06239); test: Lck inhibition assay (spectrophotometric coupled-enzyme assay); assay type: biochemical
Description: The compounds are evaluated as inhibitors of human Lck kinase using a spectrophotometric assay.
An assay buffer solution was prepared which consisted of 25 mM HEPES (pH 7.5), 10 mM MgCl2, 250 μM NADH, 3 mM phosphoenolpyruvate, 43 μg/mL pyruvate kinase, 14 μg/mL lactate dehydrogenase, 560 μM ATP and 67 nM Lck. To 60 μL of this solution, in a 96 well plate, was added 2 μL of test compound stock solution in DMSO and the mixture allowed to equilibrate for 10 minutes at 30° C. The enzyme reaction was initiated by the addition of 5 μL 15 mg/mL poly Glu, Tyr (4:1) prepared in 25 mM HEPES (pH 7.5). Final assay concentrations of Lck and ATP are 60 nM and 500 μM respectively. Initial rate data was determined from the rate of change of absorbance at 340 nm (corresponding to stoichiometric consumption of NADH) using a Molecular Devices Spectramax plate reader (Sunnyvale, Calif.) over 10 min at 30° C. For each Ki determination 8 data points covering the test compound concentration range of 0-7.5 μM are obtained in duplicate. Ki values are calculated from initial rate data by non-linear regression using the Prism software package (Prism 4.0a, Graphpad Software, San Diego, Calif.).

[3] = Solubility under the Lck assay conditions; assay type: physicochemical; conditions: Lck assay buffer conditions
[4] = 60 nM Lck, 500 μM ATP, poly Glu,Tyr (4:1), 30° C., read-out: Ki value, inhibition of Lck

Sequence of human Lck kinase (P06239 whole entry): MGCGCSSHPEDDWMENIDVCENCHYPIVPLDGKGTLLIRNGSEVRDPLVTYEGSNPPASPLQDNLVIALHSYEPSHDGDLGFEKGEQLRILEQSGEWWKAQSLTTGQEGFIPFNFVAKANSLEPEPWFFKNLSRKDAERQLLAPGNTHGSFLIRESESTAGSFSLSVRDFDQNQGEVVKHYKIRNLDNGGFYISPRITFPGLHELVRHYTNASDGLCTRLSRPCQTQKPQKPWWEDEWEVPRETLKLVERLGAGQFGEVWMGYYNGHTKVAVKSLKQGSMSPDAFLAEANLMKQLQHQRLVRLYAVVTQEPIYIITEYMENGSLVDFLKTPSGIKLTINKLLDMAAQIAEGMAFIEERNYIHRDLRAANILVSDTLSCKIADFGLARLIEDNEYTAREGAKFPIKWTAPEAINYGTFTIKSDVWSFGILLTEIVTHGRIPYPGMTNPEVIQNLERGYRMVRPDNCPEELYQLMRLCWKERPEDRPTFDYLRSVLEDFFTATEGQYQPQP
Sequence of human Src kinase (P12931 whole entry): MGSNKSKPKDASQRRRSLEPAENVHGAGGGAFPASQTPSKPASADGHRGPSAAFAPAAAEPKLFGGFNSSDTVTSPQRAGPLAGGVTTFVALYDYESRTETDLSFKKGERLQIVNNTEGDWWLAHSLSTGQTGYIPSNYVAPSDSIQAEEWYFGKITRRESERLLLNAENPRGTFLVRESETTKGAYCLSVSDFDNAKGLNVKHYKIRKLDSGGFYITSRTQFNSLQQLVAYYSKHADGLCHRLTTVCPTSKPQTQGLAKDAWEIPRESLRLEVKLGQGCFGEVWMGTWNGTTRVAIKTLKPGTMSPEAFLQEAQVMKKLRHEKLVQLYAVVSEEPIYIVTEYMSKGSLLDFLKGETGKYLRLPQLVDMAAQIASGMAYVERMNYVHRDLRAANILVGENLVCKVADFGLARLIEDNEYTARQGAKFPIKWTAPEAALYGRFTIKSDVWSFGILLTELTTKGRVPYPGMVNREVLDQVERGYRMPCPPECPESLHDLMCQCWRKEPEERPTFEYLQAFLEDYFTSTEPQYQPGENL

Ki [1]	Ki [2, 4]	Ki ([2]; read-out: Ki value, inhibition of Lck (expected))	solubility under the assay conditions [3]	SMILES
> 1000 nM	100 to 500 nM	–	–	NC(=O)c1sc(C2CCCC2)nc1-c1ccc(Oc2ccccc2)cc1 [Compound I-3, 2-Cyclopentyl-4-(4-phenoxyphenyl)thiazole-5-carboxamide]
> 1000 nM	100 to 500 nM	–	–	NC(=O)c1cn(C2CCCC2)nc1-c1ccc(Oc2ccccc2)cc1 [Compound I-2, 1-Cyclopentyl-3-(4-phenoxyphenyl)-1H-pyrazole-4-carboxamide]
100 to 500 nM	< 100 nM	–	–	NC(=O)c1[nH]c(C2CCCC2)nc1-c1ccc(Oc2ccccc2)cc1 [Compound I-1]
> 1000 nM	–	< 1000 nM	relatively low	NC(=O)c1sc(C2CCCCC2)nc1-c1ccc(Oc2ccccc2)cc1 [Compound I-4]

From patent publication US8865751B2, “Thiazoles, imidazoles, and pyrazoles useful as inhibitors of protein kinases” (Vertex Pharmaceuticals Incorporated, priority 2006, dated 2014)
